Experiments:
Assay in all cases: HTS ATP-utilizing enzyme assay, off-chip mobility-shift (Caliper HTS 250)
Format in all cases: biochemical
Conditions in all cases: test compound 10 μM, kinase listed = active (greater than six-sigma from the mean activity of inactive compounds)
PRAK = target: T1, PRAK (Homo sapiens, UniProt Q8IW41)
T1 sequence (Q8IW41 1-473): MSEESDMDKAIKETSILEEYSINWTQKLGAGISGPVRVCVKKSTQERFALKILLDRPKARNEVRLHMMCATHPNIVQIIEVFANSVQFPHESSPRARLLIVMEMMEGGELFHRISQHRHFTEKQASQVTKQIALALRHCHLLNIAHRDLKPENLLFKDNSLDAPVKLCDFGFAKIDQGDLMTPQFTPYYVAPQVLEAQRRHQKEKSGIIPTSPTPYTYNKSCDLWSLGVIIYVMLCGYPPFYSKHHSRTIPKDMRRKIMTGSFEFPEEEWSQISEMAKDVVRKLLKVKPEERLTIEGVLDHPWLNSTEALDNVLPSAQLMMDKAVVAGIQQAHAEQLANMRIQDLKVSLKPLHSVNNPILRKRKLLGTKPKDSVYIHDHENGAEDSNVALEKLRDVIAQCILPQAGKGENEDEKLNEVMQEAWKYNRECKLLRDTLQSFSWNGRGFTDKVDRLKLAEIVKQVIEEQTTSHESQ
Source text: (§1) The following procedures describe the reagent and plate preparation for a HTS of an ATP-utilizing enzyme, such as a protein kinase, run in an off-chip mobility-shift assay format. The following provides an HTS protocol for running a protein kinase HTS screen on a Caliper HTS 250 microfluidics system. The following parameters are dependent on the protein kinase used and can be determined by one skilled in the art as part of a typical assay development process. For example, the peptide substrate used can be identified from the current literature, by screening a peptide library of potential protein kinase substrates, or by other applicable means accepted in the field.
(§2) The following table provides typical screen assay parameters appropriate for a Caliper HTS 250 microfluidics system.
(§3) The reagents and buffers listed in the following table are generally applicable for developing and running an HTS screen on a human protein kinase using the Caliper HTS 250 system.
(§4) The following reagents were prepared using the previously described buffers.
(§5) A 2× Master Buffer solution was prepared by combining 200 mL of 1 M HEPES, pH 7.5, 2 mL of 10% Triton X-100, 20 mL of 10% BSA, and 778 mL of H2O.
(§6) A 2.5× Substrate Buffer solution was prepared by combining 177.408 mL of 2× Master Buffer, 0.887 mL of 1 mM peptide-X, and 176.521 mL of H2O.
(§7) A 1.55× Termination Buffer solution was prepared by combining 762.05 mL of 2× Master Buffer, 95.1 mL of 0.5 M EDTA, and 666.94 mL of H2O.
(§8) A TCB Buffer solution was prepared by combining 125 mL of 2× Master Buffer, 10 mL of 0.5 M EDTA, 6.25 mL of 4% coating reagent, 1.01 mL of 100% DMSO, and 107.74 mL H2O.
(§9) A Dye Trough solution was prepared by combining 0.5 μL of peptide-X, and 2,999.5 μL of IX Master Buffer.
(§10) A 1.06× Assay Buffer solution was prepared by combining 205.15 mL of 2× Master Buffer, and 181.92 mL of H2O.
(§11) Assays to determine the kinase inhibitory activity of compounds of the present disclosure were performed using a Caliper HTS 250 microfluidics device, Greiner U-bottom assay plates, a Multidrop for transfer of reagents, and Biomek FX (AMNCBM03) software. Initially, 2.4 μL of a 1 mM solution of a test compound in 100% DMSO was added to a well of the Greiner U-bottom plate. A single Greiner U-bottom plate having 24×16 wells could include multiple test compounds. Next, […] of 1.06× Assay Buffer was added to each well of the assay plate. Using the Biomek FX, 10 μL of 0.5 M EDTA was added by the span-8 to wells, indicated as 100% Control and 2.4 μL of 100% DMSO was added by the span-8 to wells, indicated as 0% Control. Using the Multidrop, 10 μL of 2.5× Enzyme Buffer, followed by 10 μL of 2.5× Substrate Buffer was added to each well of the assay plate. The total reaction volume in each well was 25 μL, and the concentration of the test compound was 10 μM. The assay plate was incubated for 2.5 hrs at 20° C. to 22° C. After the incubation period, using the Multidrop, 45 μL of 1.55× Termination Buffer was added to each well of the assay plate to stop the reaction. The inhibition of the ATP-utilizing enzyme, such as a particular protein kinase, was determined by measuring the ratio of the peptide substrate to phosphorylated product for each well of the assay plate using the Caliper HTS 250 system.
(§12) The use of six-sigma statistical limits represents a conservative method for declaring potential hits among targets. The six-sigma activity, as well as the mean population activity, can be different for each target enzyme. This method has an expected false positive rate, from an in-control measurement process, of one in one million.

NEK2 = target: T2, NEK2 (Homo sapiens, UniProt P51955)
T2 sequence (P51955 1-445): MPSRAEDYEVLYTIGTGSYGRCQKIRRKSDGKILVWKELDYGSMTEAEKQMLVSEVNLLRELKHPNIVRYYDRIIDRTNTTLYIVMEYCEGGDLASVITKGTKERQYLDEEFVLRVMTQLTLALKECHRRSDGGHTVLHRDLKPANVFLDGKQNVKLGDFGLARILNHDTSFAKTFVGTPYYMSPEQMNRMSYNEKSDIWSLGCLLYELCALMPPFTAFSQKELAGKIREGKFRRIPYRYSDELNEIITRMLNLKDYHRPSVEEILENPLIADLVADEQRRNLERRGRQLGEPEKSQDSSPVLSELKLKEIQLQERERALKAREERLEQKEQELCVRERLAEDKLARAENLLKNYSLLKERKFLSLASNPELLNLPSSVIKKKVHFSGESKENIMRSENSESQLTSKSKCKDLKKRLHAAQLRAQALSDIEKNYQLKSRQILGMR
Source text: as §1, §2, §3, §4, §5, §6, §7, §8, §9, §10, §11, §12

MAPKAPK2 = MAPKAPK2 (Homo sapiens, UniProt P49137)
Chain of MAPKAPK2 (P49137 whole entry): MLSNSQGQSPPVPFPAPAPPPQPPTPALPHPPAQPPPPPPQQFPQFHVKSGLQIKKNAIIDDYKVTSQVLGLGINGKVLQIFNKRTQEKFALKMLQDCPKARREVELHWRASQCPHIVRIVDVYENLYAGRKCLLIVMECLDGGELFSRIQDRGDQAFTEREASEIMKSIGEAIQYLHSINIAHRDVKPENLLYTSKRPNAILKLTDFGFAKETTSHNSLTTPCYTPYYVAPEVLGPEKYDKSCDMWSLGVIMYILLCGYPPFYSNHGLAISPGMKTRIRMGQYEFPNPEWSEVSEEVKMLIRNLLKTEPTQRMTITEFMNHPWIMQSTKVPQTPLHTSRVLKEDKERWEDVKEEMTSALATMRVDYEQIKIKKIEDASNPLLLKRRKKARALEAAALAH
In short: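 Single-point screen of test compound at 10 μM against MAPKAPK2 with peptide substrate in HEPES pH 7.5 buffer (Triton X-100, BSA), 2.5 h at 20-22 °C. Substrate-to-phosphopeptide ratio was read by off-chip microfluidic mobility shift; EDTA and DMSO wells defined 100% and 0% controls, hits by six-sigma limits.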

C-TAK1 = C-TAK1 (Homo sapiens, UniProt P27448)
Chain of C-TAK1 (P27448 whole entry): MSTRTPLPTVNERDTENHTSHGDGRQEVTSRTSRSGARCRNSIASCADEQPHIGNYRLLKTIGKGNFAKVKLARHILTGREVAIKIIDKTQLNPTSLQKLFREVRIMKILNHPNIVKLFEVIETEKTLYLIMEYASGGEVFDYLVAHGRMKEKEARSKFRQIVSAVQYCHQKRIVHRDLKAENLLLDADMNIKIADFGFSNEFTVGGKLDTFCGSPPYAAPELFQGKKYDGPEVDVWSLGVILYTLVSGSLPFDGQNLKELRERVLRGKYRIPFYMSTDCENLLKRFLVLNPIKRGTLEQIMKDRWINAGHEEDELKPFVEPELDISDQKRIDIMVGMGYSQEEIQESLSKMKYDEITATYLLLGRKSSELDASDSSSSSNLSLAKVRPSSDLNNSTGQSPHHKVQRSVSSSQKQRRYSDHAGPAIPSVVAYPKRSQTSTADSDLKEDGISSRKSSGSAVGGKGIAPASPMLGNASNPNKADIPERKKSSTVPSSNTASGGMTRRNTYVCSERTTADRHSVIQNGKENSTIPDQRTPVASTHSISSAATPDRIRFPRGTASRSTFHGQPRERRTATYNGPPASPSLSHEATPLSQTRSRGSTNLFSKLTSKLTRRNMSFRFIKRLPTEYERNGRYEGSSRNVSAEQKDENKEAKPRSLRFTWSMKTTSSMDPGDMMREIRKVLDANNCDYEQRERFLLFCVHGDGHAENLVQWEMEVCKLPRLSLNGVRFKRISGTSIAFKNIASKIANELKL
Source text: as §1, §2, §3, §4, §5, §6, §7, §8, §9, §10, §11, §12

| SMILES | Activity (PRAK) | Activity (NEK2) | Activity (MAPKAPK2) | Activity (C-TAK1) |
| --- | --- | --- | --- | --- |
| Cc1cccc(-c2ccc3nccc(Nc4ccc(N5CCN(C)CC5)cc4)c3c2)c1C [6-(2,3-dimethylphenyl)-N-(4-(4-methylpiperazin-1-yl)phenyl)quinolin-4-amine] | PRAK | NEK2 | MAPKAPK2 | – |
| CN1CCN(c2ccc(Nc3ccnc4ccc(-c5ccc(F)cc5F)cc34)cc2)CC1 [6-(2,4-difluorophenyl)-N-(4-(4-methylpiperazin-1-yl)phenyl)quinolin-4-amine] | PRAK | NEK2 | MAPKAPK2 | – |
| CN1CCN(c2ccc(Nc3ccnc4ccc(-c5ccc(C#N)cc5)cc34)cc2)CC1 [4-(4-(4-(4-methylpiperazin-1-yl)phenylamino)quinolin-6-yl)benzonitrile] | PRAK | NEK2 | MAPKAPK2 | – |
| COc1ccc(-c2ccc3nccc(Nc4ccc(N5CCN(C)CC5)cc4)c3c2)c(OC)c1 [6-(2,4-dimethoxyphenyl)-N-(4-(4-methylpiperazin-1-yl)phenyl)quinolin-4-amine] | PRAK | NEK2 | MAPKAPK2 | – |
| CN1CCN(c2ccc(Nc3ccnc4ccc(-c5ccc(Cl)cc5Cl)cc34)cc2)CC1 [6-(2,4-dichlorophenyl)-N-(4-(4-methylpiperazin-1-yl)phenyl)quinolin-4-amine] | PRAK | NEK2 | MAPKAPK2 | – |
| OCCCN1CCN(c2ccc(Nc3ccnc4ccc(-c5ccccc5)cc34)cc2)CC1 [3-(4-(4-(6-phenylquinolin-4-ylamino)phenyl)piperazin-1-yl)propan-1-ol] | PRAK | – | MAPKAPK2 | – |
| N#CCCN1CCN(c2ccc(Nc3ccnc4ccc(-c5ccc(C#N)cc5)cc34)cc2)CC1 [4-(4-(4-(4-(2-cyanoethyl)piperazin-1-yl)phenylamino)quinolin-6-yl)benzonitrile] | PRAK | – | MAPKAPK2 | – |
| N#Cc1ccc(-c2ccc3nccc(Nc4ccc(N5CCNCC5)cc4)c3c2)cc1 [4-(4-(4-(piperazin-1-yl)phenylamino)quinolin-6-yl)benzonitrile] | PRAK | – | MAPKAPK2 | – |
| N#CCCN1CCN(c2ccc(Nc3ccnc4ccc(-c5ccccc5)cc34)cc2)CC1 [3-(4-(4-(6-phenylquinolin-4-ylamino)phenyl)piperazin-1-yl)propanenitrile] | PRAK | – | MAPKAPK2 | – |

More lines, now with the values ahead:

| Activity (PRAK) | Activity (NEK2) | Activity (MAPKAPK2) | Activity (C-TAK1) | SMILES |
| --- | --- | --- | --- | --- |
| PRAK | NEK2 | MAPKAPK2 | – | CCc1ccccc1-c1ccc2nccc(Nc3ccc(N4CCN(C)CC4)cc3)c2c1 [6-(2-ethylphenyl)-N-(4-(4-methylpiperazin-1-yl)phenyl)quinolin-4-amine] |
| PRAK | NEK2 | MAPKAPK2 | – | Cc1cccc(-c2ccc3nccc(Nc4ccc(N5CCN(C)CC5)cc4)c3c2)c1 [N-(4-(4-methylpiperazin-1-yl)phenyl)-6-m-tolylquinolin-4-amine] |
| PRAK | NEK2 | MAPKAPK2 | – | Cc1ccc(-c2ccc3nccc(Nc4ccc(N5CCN(C)CC5)cc4)c3c2)cc1C [6-(3,4-dimethylphenyl)-N-(4-(4-methylpiperazin-1-yl)phenyl)quinolin-4-amine] |
| PRAK | – | – | C-TAK1 | CCCCCc1ccc(-c2ccc3nccc(Nc4ccc(N5CCN(C)CC5)cc4)c3c2)cc1 [N-(4-(4-methylpiperazin-1-yl)phenyl)-6-(4-pentylphenyl)quinolin-4-amine] |
| PRAK | NEK2 | MAPKAPK2 | – | CN1CCN(c2ccc(Nc3ccnc4ccc(-c5cccc(Cl)c5)cc34)cc2)CC1 [6-(3-chlorophenyl)-N-(4-(4-methylpiperazin-1-yl)phenyl)quinolin-4-amine] |
| PRAK | NEK2 | MAPKAPK2 | – | CN1CCN(c2ccc(Nc3ccnc4ccc(-c5cc(F)ccc5F)cc34)cc2)CC1 [6-(2,5-difluorophenyl)-N-(4-(4-methylpiperazin-1-yl)phenyl)quinolin-4-amine] |
| PRAK | NEK2 | MAPKAPK2 | – | CC(C)c1ccc(-c2ccc3nccc(Nc4ccc(N5CCN(C)CC5)cc4)c3c2)cc1 [6-(4-isopropylphenyl)-N-(4-(4-methylpiperazin-1-yl)phenyl)quinolin-4-amine] |
| – | – | MAPKAPK2 | C-TAK1 | CN1CCN(c2ccc(Nc3ccnc4ccc(-c5ccc(C6CCCCC6)cc5)cc34)cc2)CC1 [6-(4-cyclohexylphenyl)-N-(4-(4-methylpiperazin-1-yl)phenyl)quinolin-4-amine] |
| PRAK | NEK2 | MAPKAPK2 | – | Cc1ccc(-c2ccc3nccc(Nc4ccc(N5CCN(C)CC5)cc4)c3c2)cc1 [N-(4-(4-methylpiperazin-1-yl)phenyl)-6-p-tolylquinolin-4-amine] |
| PRAK | NEK2 | MAPKAPK2 | – | COc1ccccc1-c1ccc2nccc(Nc3ccc(N4CCN(C)CC4)cc3)c2c1 [6-(2-methoxyphenyl)-N-(4-(4-methylpiperazin-1-yl)phenyl)quinolin-4-amine] |
| PRAK | – | MAPKAPK2 | – | CN1CCN(c2ccc(Nc3ccnc4ccc(-c5ccsc5)cc34)cc2)CC1 [N-(4-(4-methylpiperazin-1-yl)phenyl)-6-(thiophen-3-yl)quinolin-4-amine] |
| PRAK | – | MAPKAPK2 | – | CN1CCN(c2ccc(Nc3ccnc4ccc(-c5ccc(OC(F)(F)F)cc5)cc34)cc2)CC1 [N-(4-(4-methylpiperazin-1-yl)phenyl)-6-(4-(trifluoromethoxy)phenyl)quinolin-4-amine] |
